For series [1], the target named is T1, urease (Canavalia ensiformis, UniProt P07374). Briefly: biochemical. The protocol: During the experiments all the compounds were evaluated at 0.5 mM each in triplicate.
For series [2], the system named is ROS from zymosan activated whole blood cells. Description: Oxidative burst assay (in vitro anti-inflammatory, ROS inhibition). The settings on record: for Anti-Inflammatory Activity IC50 ± SD: observed, ROS inhibition, zymosan activated whole blood cells, screening concentration 25 µg/mL, <50% inhibition = inactive; for IC50: Homo sapiens, Whole blood cell, read-out: Anti-Inflammatory Activity IC50 ± SD. The class given is cell-based, human. How it is done:
In this experiment all the compounds were evaluated at 25 µg/mL, each in triplicate.
All studies on human blood cells was carried out after an approval from independent ethics committee (Prof. Dr. Ghazala H. Rizwani Chair, IEC, Prof. Qamar Amin, Prof, Dr. Muddasir Uddin, Dr. Shahnaz Ghazi, Dr. SamiuzZaman, Prof. Dr. Ahsana Dar Farooq, Dr. M. Raza Shah member IEC), International Center for Chemical and Biological Sciences, University of Karachi, No: ICCBS/IEC-008-BC-2015/Protocol/1.0. Informed consents were obtained from the volunteers before drawing the blood. All the experiments were performed in accordance with relevant guidelines and regulations.

Series [3] in a line: in vitro. As to conditions: mouse.
Description: (§1) In this experiment all the compounds were evaluated at 30 µM each in triplicate.
Series [4] relates to 3T3 normal (mouse fibroblast) cell line.
Description: as §1
The nature of series [5]: 3T3 cytotoxicity assay (MTT). As to conditions: mouse.
Description: as §1
The subject of series [6] is ROS from zymosan activated whole blood cells. Further details: method as in PMID 6178787, PMID 28202019. The settings on record: reported literature value of the standard; cited from earlier work.
Series [7] has as its system 3T3 normal (mouse fibroblast) cell line. Briefly: 3T3 cytotoxicity assay (MTT). As to conditions: read-out: Cytotoxicity (3T3 Cell line) IC50 ± SD; observed; screened at 30 µM; <50% inhibition at 30 µM = inactive.
Description: as §1
Series [8] concerns the target T1, urease. The settings on record: reported literature value of the standard; read-out: Urease Inhibition Activity IC50 ± SEM (Reported) (converted); cited from earlier work.
The mark [9] stands for this setting: observed, screening concentration 0.5 mM, <50% inhibition = inactive, Insoluble = partially soluble in HPLC methanol of the protocol, read-out: Urease Inhibition Activity IC50 ± SEM.
Setting [10] is: observed, screening concentration 0.5 mM, <50% inhibition = inactive, Insoluble = partially soluble in HPLC methanol of the protocol.

Molecules are shown by their SMILES. ≈ marks a conversion by molar mass, not a printed value. Where two headings read alike, the source gives them in different places.

T1 sequence (P07374 whole entry, looked up): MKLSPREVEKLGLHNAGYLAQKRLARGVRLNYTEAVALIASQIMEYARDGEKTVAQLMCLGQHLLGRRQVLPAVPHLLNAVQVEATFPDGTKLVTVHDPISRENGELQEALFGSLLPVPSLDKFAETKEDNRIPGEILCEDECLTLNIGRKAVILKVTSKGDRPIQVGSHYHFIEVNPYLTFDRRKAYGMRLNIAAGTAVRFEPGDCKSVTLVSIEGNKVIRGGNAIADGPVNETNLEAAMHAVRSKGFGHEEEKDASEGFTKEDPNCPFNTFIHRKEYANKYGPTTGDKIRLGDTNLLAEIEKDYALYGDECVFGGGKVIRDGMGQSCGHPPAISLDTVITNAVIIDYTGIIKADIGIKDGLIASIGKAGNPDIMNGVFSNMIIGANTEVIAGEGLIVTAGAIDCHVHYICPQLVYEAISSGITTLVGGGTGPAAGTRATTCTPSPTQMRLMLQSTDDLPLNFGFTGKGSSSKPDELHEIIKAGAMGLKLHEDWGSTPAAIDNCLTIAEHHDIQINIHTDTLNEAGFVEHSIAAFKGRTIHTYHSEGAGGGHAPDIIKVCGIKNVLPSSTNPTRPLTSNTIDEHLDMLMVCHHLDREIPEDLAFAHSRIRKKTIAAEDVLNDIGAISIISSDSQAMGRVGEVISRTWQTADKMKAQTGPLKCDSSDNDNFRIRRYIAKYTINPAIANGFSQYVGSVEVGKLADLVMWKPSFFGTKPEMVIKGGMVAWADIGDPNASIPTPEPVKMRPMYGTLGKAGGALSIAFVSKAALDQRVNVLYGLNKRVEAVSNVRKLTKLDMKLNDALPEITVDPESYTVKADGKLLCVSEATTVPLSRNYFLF

The term IC50 denotes the concentration needed to halve the response being measured. In general, melting point refers to the temperature, or range, at which the solid turns liquid. Consider `O=C(NNC(=S)Nc1ccc(F)cc1)c1ccncc1` [Compound 19, N-(4-Fluorophenyl)-2-isonicotinoylhydrazinecarbothioamide], for which the melting point lay in the range of 191 to 192 °C. Half-maximal inhibition in series [1] (IC50) required 12.7 ± 0.8 µM. For the same compound, the “Anti-Inflammatory Activity IC50 ± SD” value in series [2] is given as “Inactive”. Also, the IC50 in [3] is over 30 µM.

With `O=C(NNC(=S)Nc1c(F)c(F)c(F)c(F)c1F)c1ccncc1` [Compound 12, 2-Isonicotinoyl-N-(perfluorophenyl) hydrazinecarbothioamide], the IC50 was 12.3 ± 1.04 µM in [1] (setting [9]) and over 30 µM in [4]. Further, the “Anti-Inflammatory Activity IC50 ± SD” value in series [2] stood at 27.7 ± 2.4 µg/mL.

`O=C(NNC(=S)NC1CCCCC1)c1ccncc1` [Compound 23, N-Cyclohexyl-2-isonicotinoylhydrazinecarbothioamide] showed a melting point of 212 to 213 °C. Besides, in [1], the IC50 amounted to 22.4 ± 1.83 µM. Further, the half-inhibitory concentration (IC50) in series [2] stood at 12.3 ± 1.2 µg/mL (≈ 44.2 µM). Further, the IC50 in series [3] is over 30 µM.

`O=C(NNC(=S)Nc1cccc(F)c1)c1ccncc1` [Compound 16, N-(3-Fluorophenyl)-2-isonicotinoylhydrazinecarbothioamide] yielded a melting point of 174 to 175 °C. This compound yielded an IC50 in series [1] of 21.5 ± 1.3 µM. Also, the IC50 in series [2] was 29.7 ± 1.7 µg/mL (≈ 102 µM). This compound returned an IC50 in [3] of over 30 µM.

Regarding `O=C(NNC(=S)Nc1ccccc1)c1ccncc1` [Compound 24, 2-Isonicotinoyl-N-phenylhydrazinecarbothioamide], the concentration for half-maximal inhibition (IC50) in series [1] was 63.2 ± 2 µM; in series [3], over 30 µM. In series [2], the “Anti-Inflammatory Activity IC50 ± SD” value is “Inactive”.

Take `NNC(=O)c1ccncc1` [Isoniazid(1), Isoniazid]: in [1] (setting [10]), the “Urease Inhibition Activity IC50 ± SEM” value is reported as “Inactive”. Besides, the “Anti-Inflammatory Activity IC50 ± SD” value in series [2] is reported as “Inactive”. This compound yielded an IC50 in series [5] of 28.5 ± 1.2 µM.

For `O=C(NNC(=S)Nc1cc(C(F)(F)F)ccc1Cl)c1ccncc1` [Compound 8, N-(2-Chloro-5-(trifluoromethyl)phenyl)-2-isonicotinoylhydrazinecarbothioamide], the melting point lay within 183 to 184 °C. The compound also came in with an IC50 in series [1] of 44.4 ± 0.43 µM. Also, the “Anti-Inflammatory Activity IC50 ± SD” value in [2] is on record as “Inactive”. The concentration for half-maximal inhibition (IC50) in series [3] is over 30 µM.

`O=C(NNC(=S)Nc1ccc(F)cc1F)c1ccncc1` [Compound 15, N-(2,4-Difluorophenyl)-2-isonicotinoylhydrazinecarbothioamide] displayed a melting point of 191 to 192 °C. In series [1], this compound had an IC50 of 34.1 ± 0.45 µM. Moreover, in [2], the “Anti-Inflammatory Activity IC50 ± SD” value is “Inactive”. In [3], this compound displayed a half-inhibitory concentration (IC50) of over 30 µM.

Take `O=C(NNC(=S)Nc1ccccc1Br)c1ccncc1` [Compound 14, N-(2-Bromophenyl)-2-isonicotinoylhydrazinecarbothioamide]: the melting point lay in the range of 156 to 157 °C. In addition, the IC50 in series [1] amounted to 35.8 ± 1.89 µM. Also, the “Anti-Inflammatory Activity IC50 ± SD” value in series [2] is “Inactive”. Moreover, the IC50 in series [3] is over 30 µM.

For `CCCCCCNC(=S)NNC(=O)c1ccncc1` [Compound 25, N-Hexyl-2-isonicotinoylhydrazinecarbothioamide], the melting point was 215 to 216 °C. For the same compound, the “Urease Inhibition Activity IC50 ± SEM” value in series [1] (setting [10]) is given as “Insoluble”. Moreover, the “Anti-Inflammatory Activity IC50 ± SD” value in [2] is “Inactive”. For the same compound, the IC50 in [3] was over 30 µM.

On to `O=C(NNC(=S)Nc1c(Cl)cccc1Cl)c1ccncc1` [Compound 6, N-(2,6-Dichlorophenyl)-2-isonicotinoylhydrazinecarbothioamide], for which the melting point lay in the range of 127 to 128 °C. Also, the “Urease Inhibition Activity IC50 ± SEM” value in series [1] (setting [10]) is recorded as “Insoluble”. For the same compound, the “Anti-Inflammatory Activity IC50 ± SD” value in [2] was “Inactive”. In [3], this compound gave an IC50 of over 30 µM.

`CC(C)Cc1ccc(C(C)C(=O)O)cc1` (stereo not shown) [Ibuprofen, reference compound]: in [2], the IC50 stood at 11.2 ± 1.9 µg/mL (≈ 54.3 µM). In series [6], the “Anti-Inflammatory Activity IC50 ± SD (reported)” value is 12.97 ± 0.23 µg/mL.

`O=C(NNC(=S)Nc1ccccc1F)c1ccncc1` [Compound 3, N-(2-Fluorophenyl)-2-isonicotinoylhydrazinecarbothioamide] returned a melting point of 241 to 242 °C. Also, the “Urease Inhibition Activity IC50 ± SEM” value in series [1] (setting [10]) is given as “Inactive^c”. Besides, the “Anti-Inflammatory Activity IC50 ± SD” value in series [2] is “Inactive”. This compound also registered an IC50 in [3] of over 30 µM.

For the compound `O=C(NNC(=S)Nc1cc(Cl)c(Cl)cc1Cl)c1ccncc1` [Compound 21, Isonicotinoyl-N-(2,4,5-trichlorophenyl) hydrazinecarbothioamide], the values for the IC50 in series [1] (setting [9]) and in series [4] were 28.2 ± 1.48 µM and over 30 µM, respectively. In series [2], the “Anti-Inflammatory Activity IC50 ± SD” value is “Inactive”.

Turning to `O=C(NNC(=S)Nc1cccc(N=C=S)c1)c1ccncc1` [Compound 26], the melting point fell in the range of 195 to 196 °C.

With `O=C(NNC(=S)Nc1cccc(Cl)c1Cl)c1ccncc1` [Compound 4, N-(2,3-Dichlorophenyl)-2-isonicotinoylhydrazinecarbothioamide], the melting point lay in the range of 198 to 199 °C. Moreover, the IC50 in [1] worked out at 38.8 ± 0.35 µM. The “Anti-Inflammatory Activity IC50 ± SD” value in [2] was “Inactive”. In [3], this compound yielded an IC50 of over 30 µM.

For `O=C(NNC(=S)Nc1ccc(OC(F)(F)F)cc1)c1ccncc1` [Compound 11, 2-Isonicotinoyl-N-(4-(trifluoromethoxy)phenyl) hydrazine carbothioamide], the IC50 in series [1] (setting [9]) is 13.2 ± 1.64 µM; in series [7], over 30 µM. Further, in series [2], the “Anti-Inflammatory Activity IC50 ± SD” value was “Inactive”.

Consider `O=C(NNC(=S)Nc1cccc(I)c1)c1ccncc1` [Compound 17, N-(3-Iodophenyl)-2-isonicotinoylhydrazinecarbothioamide], for which the melting point was 192 to 193 °C. Besides, in series [1], the IC50 turned out to be 14.7 ± 1.01 µM. Further, in series [2], the IC50 worked out at 36.9 ± 3 µg/mL (≈ 92.7 µM). In series [3], the IC50 is over 30 µM.

The compound `O=C(NNC(=S)Nc1cccc(Br)c1)c1ccncc1` [Compound 22, N-(3-Bromophenyl)-2-isonicotinoylhydrazinecarbothioamide] returned a melting point of 192 to 193 °C. The compound also had an IC50 in series [1] of 22.1 ± 1.91 µM. Moreover, in [2], the IC50 amounted to 25.1 ± 0.4 µg/mL (≈ 71.5 µM). Also, in [3], the IC50 is over 30 µM.

The compound `O=C(NNC(=S)NC1CCCC1)c1ccncc1` [Compound 13, N-Cyclopentyl-2-isonicotinoylhydrazinecarbothioamide] yielded a melting point of 223 to 224 °C. In addition, 13.6 ± 1.61 µM corresponded to half-maximal inhibition in series [1] (IC50). For the same compound, in series [2], the “Anti-Inflammatory Activity IC50 ± SD” value is listed as “Inactive”. For the same compound, the IC50 in series [3] was over 30 µM.

In the case of `O=C(NNC(=S)Nc1cc(Cl)ccc1Cl)c1ccncc1` [Compound 5, N-(2,5-Dichlorophenyl)-2-isonicotinoylhydrazinecarbothioamide], the melting point is 172 to 173 °C. This compound yielded a concentration for half-maximal inhibition (IC50) in [1] of 36.5 ± 0.14 µM. Further, the IC50 in series [2] was 18.5 ± 1 µg/mL (≈ 54.2 µM). Also, the 50% inhibitory concentration (IC50) in series [3] was over 30 µM.

`CC(=O)NO` [Aetohydaoxamic acid, acetohydroxamic acid, reference compound]: the IC50 in [1] (setting [9]) was 20.3 ± 0.4 µM; in series [8], 17.2 µM.

Take `O=C(NNC(=S)Nc1cccc([N+](=O)[O-])c1)c1ccncc1` [Compound 27, 2-Isonicotinoyl-N-(3-nitrophenyl) hydrazinecarbothioamide]: the “Urease Inhibition Activity IC50 ± SEM” value in [1] (setting [10]) is “Insoluble^d”. For the same compound, the “Anti-Inflammatory Activity IC50 ± SD” value in series [2] is recorded as “Inactive”. This compound registered an IC50 in series [4] of over 30 µM.

Compound `N#Cc1ccc(NC(=S)NNC(=O)c2ccncc2)cc1` [Compound 10, N-(4-Cyanophenyl)-2-isonicotinoylhydrazinecarbothioamide] displayed a melting point of 162 to 163 °C. This compound returned an IC50 in [1] of 15.7 ± 1.32 µM. Further, in [2], the “Anti-Inflammatory Activity IC50 ± SD” value is “Inactive”. This compound also registered an IC50 in series [3] of over 30 µM.

In turn, `O=C(NNC(=S)Nc1ccc(Cl)c(C(F)(F)F)c1)c1ccncc1` [Compound 9, N-(4-Chloro-3-(trifluoromethyl)phenyl)-2 isonicotinoylhydrazinecarbothioamide] showed a melting point of 231 to 232 °C. In addition, 14.2 ± 1.38 µM corresponded to half-maximal inhibition in series [1] (IC50). Besides, the IC50 in series [2] was 26.7 ± 2.5 µg/mL (≈ 71.2 µM). For the same compound, the IC50 in series [3] was over 30 µM.

With `O=C(NNC(=S)Nc1c(F)cccc1F)c1ccncc1` [Compound 7, N-(2,6-Difluorophenyl)-2-isonicotinoylhydrazinecarbothioamide], the melting point lay in the range of 248 to 249 °C. Besides, 46.3 ± 0.43 µM corresponded to half-maximal inhibition in series [1] (IC50). The “Anti-Inflammatory Activity IC50 ± SD” value in [2] is “Inactive”. Moreover, the IC50 in series [3] is over 30 µM.

In the case of `COc1ccc(NC(=S)NNC(=O)c2ccncc2)cc1` [Compound 20, 2-Isonicotinoyl-N-(4-methoxyphenyl) hydrazinecarbothioamide], the half-inhibitory concentration (IC50) in series [1] (setting [9]) was 22 ± 1.15 µM; in [4], over 30 µM. In addition, in [2], the “Anti-Inflammatory Activity IC50 ± SD” value was “Inactive”.

In the case of `O=C(NNC(=S)Nc1ccc(Cl)cc1)c1ccncc1` [Compound 18, N-(4-Chlorophenyl)-2-isonicotinoylhydrazine carbothioamide], the IC50 was 26.3 ± 1.59 µM in [1] and 29.5 ± 1.9 µM in series [3]. Besides, in series [2], the “Anti-Inflammatory Activity IC50 ± SD” value is listed as “Inactive”.
